Source: patent US11345762B2, “Method for preparing liquid medium composition, and preparation device and kit therefor” (NISSAN CHEMICAL INDUSTRIES, LTD., priority 2015, dated 2022)

What was measured:
[1] = test system: Human lung cancer cell line A549; assay: A549 cell proliferation suppressive test with anticancer agents in low adhesion plate (ATP, CellTiter-Glo); format: cell-based
Description: Deacylated gellan gum (KELCOGEL CG-LA, manufactured by Sansho Co., Ltd.) was suspended in ultra pure water (Milli-Q water) to 0.3% (w/v) or 0.75% (w/v), dissolved by stirring with heating at 90° C., and this aqueous solution was autoclave sterilized at 121° C. for 20 min. Using 0.3% solution, a medium composition was prepared by adding deacylated gellan gum (final concentration 0.015% (w/v)) to DMEM medium (manufactured by WAKO) containing 10% (v/v) fetal bovine serum. Fetal bovine serum was added at 10% (v/v) to a medium composition prepared in Example 7.
Human lung cancer cell line A549 (manufactured by DS PHARMA BIOMEDICAL) was seeded in the above-mentioned medium composition added with deacylated gellan gum (conventional method) or the medium composition of Example 7 at 14800 cells/mL, and dispensed to the wells of a 96 well flat bottom ultra-low adhesive surface microplate (Corning Incorporated manufactured by, #3474) at 135 μL per […]. As a negative control, A549 cells were suspended in the above-mentioned medium free of deacylated gellan gum and dispensed. Each plate was cultured in a static state in a CO2 incubator (37° C., 5% CO2). On day 1 of culture, medium compositions (conventional method and the production method of the present invention) containing each anticancer agent at 10-fold concentration and deacylated gellan gum (final concentration 0.015% (w/v)), and a medium composition containing each anticancer agent alone at 10-fold concentration (non-addition method), 15 μL each, was added to a final concentration of 0.001 to 30 μM, and culture was continued for 7 days. As the anticancer agent, Trametinib (manufactured by Santa Cruz, MEK inhibitor) and MK-2206 (manufactured by Santa Cruz, Akt inhibitor) were used. ATP reagent (150 μL, CellTiter-Glo™ Luminescent Cell Viability Assay, manufactured by Promega) was added to the culture media on days 5 and 8 and suspended therein, stood for about 10 min at room temperature, and the luminescence intensity (RLU value) was measured by FlexStation3 (manufactured by Molecular Devices), from which the luminescence with the medium alone was subtracted to measure the number of viable cells.

[2] = test system: Human pancreatic cancer cell line Panc02,03; assay: Proliferation action on Panc02,03 cell stimulated by each growth factor (ATP, CellTiter-Glo); format: cell-based
[3] = A549, day 4 of static culture, 0.001 μM, conventional method
[4] = A549, day 4 of static culture, 0.001 μM, non-addition method
[5] = A549, day 4 of static culture, 0.001 μM, production method of present invention
[6] = A549, day 4 of static culture, 0.01 μM, conventional method
[7] = A549, day 4 of static culture, 0.01 μM, non-addition method
[8] = A549, day 4 of static culture, 0.01 μM, production method of present invention
[9] = A549, day 7 of static culture, 0.001 μM, conventional method
[10] = A549, day 7 of static culture, 0.001 μM, non-addition method
[11] = A549, day 7 of static culture, 0.001 μM, production method of present invention
[12] = A549, day 7 of static culture, 0.01 μM, conventional method
[13] = A549, day 7 of static culture, 0.01 μM, non-addition method
[14] = A549, day 7 of static culture, 0.01 μM, production method of present invention

Compound | % control of RLU value (ATP measurement, luminescence intensity) [1, 3] [% Control] | % control of RLU value (ATP measurement, luminescence intensity) [1, 4] [% Control] | % control of RLU value (ATP measurement, luminescence intensity) [1, 5] [% Control] | % control of RLU value (ATP measurement, luminescence intensity) [1, 6] [% Control] | % control of RLU value (ATP measurement, luminescence intensity) [1, 7] [% Control] | % control of RLU value (ATP measurement, luminescence intensity) [1, 8] [% Control] | % control of RLU value (ATP measurement, luminescence intensity) [1, 9] [% Control] | % control of RLU value (ATP measurement, luminescence intensity) [1, 10] [% Control] | % control of RLU value (ATP measurement, luminescence intensity) [1, 11] [% Control] | % control of RLU value (ATP measurement, luminescence intensity) [1, 12] [% Control] | % control of RLU value (ATP measurement, luminescence intensity) [1, 13] [% Control] | % control of RLU value (ATP measurement, luminescence intensity) [1, 14] [% Control] | also measured
CC(=O)Nc1cccc(-n2c(=O)n(C3CC3)c(=O)c3c(Nc4ccc(I)cc4F)n(C)c(=O)c(C)c32)c1 [Trametinib] | 85 | 76 | 82 | 61 | 65 | 57 | 81 | 76 | 76 | 48 | 56 | 45 | % control of RLU value (ATP measurement, luminescence intensity) ([1]; A549, day 4 of static culture, 0.003 μM, conventional method): 65 % Control; % control of RLU value (ATP measurement, luminescence intensity) ([1]; A549, day 4 of static culture, 0.003 μM, non-addition method): 57 % Control; % control of RLU value (ATP measurement, luminescence intensity) ([1]; A549, day 4 of static culture, 0.003 μM, production method of present invention): 60 % Control; % control of RLU value (ATP measurement, luminescence intensity) ([1]; A549, day 4 of static culture, 0.03 μM, conventional method): 40 % Control; % control of RLU value (ATP measurement, luminescence intensity) ([1]; A549, day 4 of static culture, 0.03 μM, non-addition method): 46 % Control; % control of RLU value (ATP measurement, luminescence intensity) ([1]; A549, day 4 of static culture, 0.03 μM, production method of present invention): 41 % Control; % control of RLU value (ATP measurement, luminescence intensity) ([1]; A549, day 7 of static culture, 0.003 μM, conventional method): 52 % Control; % control of RLU value (ATP measurement, luminescence intensity) ([1]; A549, day 7 of static culture, 0.003 μM, non-addition method): 48 % Control; % control of RLU value (ATP measurement, luminescence intensity) ([1]; A549, day 7 of static culture, 0.003 μM, production method of present invention): 48 % Control; % control of RLU value (ATP measurement, luminescence intensity) ([1]; A549, day 7 of static culture, 0.03 μM, conventional method): 25 % Control; % control of RLU value (ATP measurement, luminescence intensity) ([1]; A549, day 7 of static culture, 0.03 μM, non-addition method): 39 % Control; % control of RLU value (ATP measurement, luminescence intensity) ([1]; A549, day 7 of static culture, 0.03 μM, production method of present invention): 24 % Control
CC(=O)O[C@H]1C(=O)[C@@]2(C)[C@H]([C@H](OC(=O)c3ccccc3)[C@]3(O)C[C@H](OC(=O)[C@H](O)[C@@H](NC(=O)c4ccccc4)c4ccccc4)C(C)=C1C3(C)C)[C@]1(OC(C)=O)CO[C@@H]1C[C@@H]2O [Paclitaxel] | 98 | 112 | 91 | 31 | 57 | 32 | 90 | 116 | 84 | 12 | 49 | 12 | –
human TGF-β1: growth factor, manufactured by PEPROTECH | – | – | – | – | – | – | – | – | – | – | – | – | % control of RLU value (ATP measurement, luminescence intensity) ([2]; Panc02,03, 3 ng/mL, medium composition of Example 13, on day 6 (head)): 102 % Control; % control of RLU value (ATP measurement, luminescence intensity) ([2]; Panc02,03, 3 ng/mL, monolayer culture group, culture conditions on day 6 (head)): 95 % Control; % control of RLU value (ATP measurement, luminescence intensity) ([2]; Panc02,03, 3 ng/mL, negative control group (medium free of deacylated gellan gum, low adhesion plate), on day 6 (head)): 114 % Control; % control of RLU value (ATP measurement, luminescence intensity) ([2]; Panc02,03, 30 ng/mL, medium composition of Example 13, on day 6 (head)): 106 % Control; % control of RLU value (ATP measurement, luminescence intensity) ([2]; Panc02,03, 30 ng/mL, monolayer culture group, culture conditions on day 6 (head)): 99 % Control; % control of RLU value (ATP measurement, luminescence intensity) ([2]; Panc02,03, 30 ng/mL, negative control group (medium free of deacylated gellan gum, low adhesion plate), on day 6 (head)): 122 % Control
